Here are results for 89 compounds from a melting point compilation (Tetko et al.; mined from patent text by program, amines drawn as free bases though some values may be those of a salt).

A value given as a limit tells only on which side of the number the result lay.

For `COCCNC(=O)Nc1nc2ccc(Sc3nnc4ccccn34)cc2s1`, the melting point (usually the temperature of the solid-liquid transition) lay in the range of 252 to 257 °C. Regarding `O=C1c2ccccc2C(=O)N1CSc1nnnn1-c1ccccc1`, the melting point lay in the range of 146 to 147 °C. As to `CN(O)C(=O)Nc1ccc(Oc2ccc(NC(=O)N(C)O)cc2)cc1`, the melting point lay in the range of 183 to 184 °C.

The compound `Cc1cc2c(c3ccc(=O)[nH]c13)OC(CNC(=O)CN(C)C(=O)OC(C)(C)C)C2` (centres undefined) yielded a melting point of 190 to 191 °C. `CC(C)(C)OC(=O)N[C@@H](Cc1ccccc1)[C@H]1CO1` returned a melting point of 126 °C.

Take `COc1cc(NC(=O)c2cccc(CCl)c2)cc(OC)c1OC`: the melting point was in the range of 138 to 145 °C. `CC(C)c1cccc(C(C)C)c1NC(=O)CN1CCN(CCCSc2nc3ncccc3o2)CC1` yielded a melting point of 125 to 127 °C. Compound `Brc1cccc(-c2cn([C@H]3CN4CCC3CC4)nn2)c1` registered a melting point of 188 °C. With `NC(=O)CN1CCN(C(=O)Cc2ccc(OC(=O)c3ccc([N+](=O)[O-])cc3)cc2)CC1`, the melting point lay in the range of 192 to 196 °C. `CC(C)n1nc(-c2c(-c3ccccc3)nn3ccc(OC4CCOCC4)cc23)ccc1=O` yielded a melting point of 210 to 211 °C. For `CCCCCCC(C)(C)c1ccc(C2=CCCC3(C2)OCCO3)c(O)c1` the value was 97 to 98 °C; for `Cc1nn(C)c(C2=NC(C)C(C)N2)c1N` (centres undefined), 250 °C; for `O=C(NC(c1ccccc1)c1ccccc1)[C@H]1Cc2c([nH]c3ccccc23)CN1`, 191 to 196 °C.

`C1=C(c2ccc3ccccc3c2)CCN(Cc2c[nH]c3ncccc23)C1`: the melting point fell in the range of 223 to 225 °C. For `CC(=O)Nc1c(Cl)ccc(C)c1Cl`, the melting point was 180 to 182 °C.

As for `C=COc1ccc(C(=O)c2ccccc2)cc1`, the melting point stood at 58 °C. `CC(C)CCCC(C)C1CCC2C3CC4(OCCO4)C4CCCC(O)C4(C)C3CCC12C` (centres undefined) had a melting point of 96 to 98 °C.

As for `CC(C)(Oc1ccc(CC(=O)Nc2ccccc2)cc1)C(=O)O`, the melting point amounted to 198 °C. On to `C=CCn1c(=S)n(C2OC(CO)C(O)C2O)c2nc(N)[nH]c(=O)c21` (centres undefined), for which the melting point was above 230 °C. For `CC(C(=O)O)c1cccc(S(=O)(=O)c2ccccc2Cl)c1O` (centres undefined) the value was 180 to 181 °C. In turn, `CCOC(=O)C(C#N)=Cc1cc(OC)c(N)c(OC)c1` showed a melting point of 77 to 78 °C.

In turn, `Cn1c(=O)c(-c2ccc(Cl)cc2Cl)cc2c3cc(C=NO)ccc3n(C)c21` yielded a melting point of 287 to 290 °C. Regarding `O=S(=O)(NCC1CCN(C[C@H]2COc3ccc(Cl)cc3O2)CC1)c1ccc(F)cc1`, the melting point fell in the range of 127 to 129 °C. Consider `CCCn1c(COCC)nc2c(N)nc3cc(OC4CCN(C(=O)OC(C)(C)C)CC4)ccc3c21`, for which the melting point is 194 to 195 °C. The compound `CCC1c2cccn2-c2c(cc(F)c(F)c2F)N1S(=O)(=O)c1ccc(O)cc1` (centres undefined) displayed a melting point of 155 to 156 °C.

`CC(C)NC(=O)Nc1ccc(Cl)cc1C(=O)c1ccccc1` yielded a melting point of 190 to 192 °C.

As to `CCOC(=O)[C@@H]1CN(CC2=Cc3ccc(OC)cc32)CC[C@H]1O` (relative stereo), the melting point fell in the range of 156 to 160 °C. Compound `Clc1ccc(N2CCN(CCCc3c4c(nn3-c3ccccc3)CCCC4)CC2)cc1` showed a melting point of 127 to 129 °C.

`O=[N+]([O-])c1cc(Br)cc2c1[nH]c1ccc(Br)cc12` came in with a melting point of 252 to 256 °C. For `Cc1cc(CO)nc(Nc2ccccc2)n1` the value was 118 to 120 °C; for `CCCNC(=NS(=O)(=O)N(C)C)N1CC(c2ccccc2)C(c2ccc(Cl)cc2)=N1` (centres undefined), 127 to 129 °C; for `CCc1c(OC)nc(OC)nc1C(C#N)c1cc(Cl)cc(Cl)c1` (centres undefined), 121 to 122 °C.

`Cc1cccc2c(C(F)(F)F)c(O)ccc12` displayed a melting point of 83 to 84 °C. Take `CC(C)(C)OC(=O)Nc1ccc2ccc(S(C)(=O)=O)cc2c1`: the melting point lay in the range of 179 to 180 °C. For the compound `CCC(C)(C)c1ccc(OCCCC(=O)Nc2ccc(Cl)c(NC(=O)C(C(=O)c3ccc(OC)cc3)N3C(=O)NC(=C(C)C)C3=O)c2)c(C(C)(C)CC)c1` (centres undefined), the melting point lay within 140 to 141 °C. For `O=C(N[C@@H](Cc1ccccc1)C[C@H](O)[C@H](Cc1ccccc1)NC(=O)OCc1nccs1)OCc1nccs1` the value was 66 to 69 °C; for `O=C1CCCN1CC1CCN(c2ccnc(C(F)(F)F)n2)CC1`, 118 to 120 °C.

As to `CC(=O)NC(=N)NCC1CC2c3cccc4[nH]cc(c34)CC2N(C)C1` (centres undefined), the melting point was in the range of 218 to 220 °C. Compound `COC(=O)N(C)CCCCCC(=O)OC[C@@H]1CC(c2ccc(-c3ccc(N4C[C@H](Cn5ccnn5)OC4=O)cc3F)cn2)=NO1` returned a melting point of 103 °C. Next, `N#Cc1ccccc1Sc1ccccc1[N+](=O)[O-]`: 166 to 167 °C; `Cc1cc(C)c(C)c(C(=O)Cn2ccnc2)c1C`: 176 to 178 °C.

Take `O=C(c1cc2ccc(N3CCCCC3)cc2o1)C12CC3CC(CC(C3)C1)C2`: the melting point lay in the range of 150 to 152 °C.

For the compound `Nc1cccc(-c2ccnc3c(C(=O)c4cccs4)cnn23)c1`, the melting point fell in the range of 183 to 184 °C.

The compound `Cc1ccc2c([nH]c(=O)n3c(=O)[nH]nc23)c1C` gave a melting point of 380 to 382 °C.

For `CCOC(=O)c1c(-c2ccccc2)c(Cc2cccc(F)c2C)cn1N`, the melting point lay in the range of 87 to 88 °C. `C=CCSc1nc(N)n(-c2nnc(-c3ccccc3O)s2)n1` displayed a melting point of 222 to 223 °C. Consider `O=C(NC1CCC(c2cc(Nc3cccc(C(F)(F)F)c3)n[nH]2)C1)c1ccccn1` (centres undefined), for which the melting point was determined as 162 °C. `N#CCCCNC(=O)c1n[nH]cc1NC(=O)c1ccccn1`: the melting point was 231 to 233 °C. As for `Cc1ccc(OCC(=O)O)c2sc3ccccc3c(=O)c12`, the melting point was 198 to 235 °C.

Regarding `CCCOc1nc(Nc2ccc(F)c(Cl)c2)nc(NC2CCN(S(C)(=O)=O)CC2)n1`, the melting point was 199 to 201 °C.

For the compound `O=C(O)c1cc(=O)c2cc3c(c(CC(O)CO)c2o1)CCCC3` (centres undefined), the melting point was in the range of 217 to 218 °C. `O=c1[nH]c2cc(Cl)cc(Cl)c2c(=O)n1Cc1ccccc1F`: the melting point is 275 to 278 °C.

As for `CCOC(=O)c1cc(NCc2ccccc2)c(Oc2cccc(C(F)(F)F)c2)c(S(N)(=O)=O)c1`, the melting point is 166 to 168 °C. `O=CCOc1ccc(Cl)cc1`: the melting point was 122 to 128 °C. In turn, `Cn1ccnc1Sc1ccccc1[N+](=O)[O-]` came in with a melting point of 117 to 119 °C.

As to `C#CCOc1ccc2nc(N)c3nc4n(c3c2c1)C(C)COC4` (centres undefined), the melting point was in the range of 184 to 186 °C.

Regarding `Cn1cc(C2=C(c3c4n(c5ccccc35)CCC(NC(=O)OC(C)(C)C)C4)C(=O)NC2=O)c2ccccc21` (centres undefined), the melting point was 153 to 155 °C. `CCCCCC/C(=C\c1ccccc1)CNc1cccc(-c2ccnc3c(C(=O)c4cccs4)cnn23)c1` yielded a melting point of 110 to 115 °C. Take `CC(C)=CCC[C@H](C)CC(=NO)C(C[C@@H](C)CCC=C(C)C)=NO`: the melting point was 131 to 132 °C. In turn, `CCOC(=O)c1c(C(F)(F)F)nc(C(F)(F)F)c(C)c1OCC(=O)c1ccccc1` showed a melting point of 95 to 97 °C. `CCC1OC(Cn2cncn2)(c2ccc(Cl)cc2Cl)OC1C` (centres undefined) registered a melting point of 109 to 113 °C. `CCOC(=O)/C=C/c1cn(Cc2ccc(OCc3ccccc3)cc2)cc1-c1ccccc1` gave a melting point of 111 to 112 °C. The compound `N#CC(C#N)=C1N(CCCN2CCCCC2)CCN1CCCN1CCCCC1` showed a melting point of 99 to 101 °C. For `CN(C)C(c1cccs1)C1CCC(=NO)CC1` (centres undefined) the value was 118 to 121 °C; for `CN(C)Nc1c(-c2c(F)cc(F)cc2F)c(Cl)nc2ncnn12`, 165 to 168 °C; for `CCCCCCOC(=O)c1cccc(-c2cn(C)cc(-n3cccn3)c2=O)c1`, 96 to 97 °C. For `Nc1nc(C#Cc2ccccc2)nc2nc(-c3ccco3)nn12`, the melting point was above 280 °C. Regarding `Nc1ccc2c(c1)C(=O)C2`, the melting point lay in the range of 92 to 93 °C.

With `CS(=O)(=O)c1ccc(-c2cc(C(F)(F)F)nn2-c2ccc(O)cc2)cc1`, the melting point was 243 to 244 °C.

`Nc1nc(F)c(OC(F)F)c(Cl)n1` returned a melting point of 77 to 80 °C.

In turn, `CCCN(C(C)C)C1COc2cccc(C(=O)NC(C)C)c2C1` (centres undefined) came in with a melting point of 124 °C. Consider `Nc1sc2c(c1C(=O)c1ccc3ccccc3c1)CCC(Cc1ccc([N+](=O)[O-])cc1)C2` (centres undefined), for which the melting point was in the range of 76 to 78 °C. `CCCc1nn(C)c2c(=O)[nH]c(-c3cc(S(=O)(=O)N4C[C@@H](C)N[C@@H](C)C4)ccc3OCC)nc12` came in with a melting point of 202 to 203 °C. With `CCOC(=O)c1ncn(-c2nccs2)c1S`, the melting point was in the range of 155 to 158 °C. `CC(C)C(C)(C#N)N1C(=O)c2ccc3ccn(C)c3c2C1=O` (centres undefined) registered a melting point of 134 to 138 °C. Compound `Cc1oc(-c2cccc(Br)c2)nc1CCOc1ccc(OC(C)(C)C(=O)O)cc1` showed a melting point of 158 to 159 °C.

On to `CCOc1ccc(OCc2ccc(OCc3nc(-c4ccccc4)oc3C)cc2)c(CC(=O)O)c1`, for which the melting point is 122 to 123 °C.

`O=c1[nH]ccn1-c1ccc(F)cc1` came in with a melting point of 166 to 167 °C.

As for `C=CCc1oc2c(OC)cccc2c1CC(=O)OC`, the melting point was in the range of 65 to 66 °C.

Compound `COc1ccc(C(=O)C2=C(O)C(=O)N(C3OCCO3)C2c2ccccc2)cc1` (centres undefined) displayed a melting point of 216 to 219 °C. Take `COC(=O)C(=O)c1ccc(OCCCCCCOc2ccccc2)cc1`: the melting point lay in the range of 50 to 52 °C. As for `O=C1Cc2cccc(Oc3ccccc3Cl)c2O1`, the melting point lay within 118 to 120 °C. In the case of `Cc1ccc(C2CCCN2S(=O)(=O)c2ccc(F)cc2)cc1` (racemic), the melting point worked out at 112 °C. In the case of `O=Cc1ccc(OCC(F)(F)F)c([N+](=O)[O-])c1`, the melting point was 126 to 127 °C. `CC(CBr)(CBr)C(=O)O` displayed a melting point of 60 to 62 °C.

`CC(C)(C)OC(=O)COc1cc(NC(=O)OC(C)(C)C)c([N+](=O)[O-])cc1-c1ccc(F)cc1` showed a melting point of 92 to 93 °C.

`COc1cc(OC)c2c(=O)[nH]c(-c3ccccn3)nc2c1` had a melting point of 215 to 217 °C. The compound `COc1cc2c(Cl)c(C(N)=O)cnc2cc1F` had a melting point of 228 °C.

With `CCCCc1ccc(-c2nc3ccccc3[nH]2)nc1`, the melting point was 138 to 139 °C.
